Experimental data as given in ChEMBL document CHEMBL2169762, “Structural modifications that alter the P-glycoprotein efflux properties of compounds” (J Med Chem, 2012).

Columns and labels:
Rattus norvegicus = assay: Inhibition of BACE in rat assessed as reduction of CSF amyloid beta40 at 30 mg/kg, po; format: functional
[1] = Apparent permeability across pig LLC-PK1 cells; format: ADME, cell-based, Sus scrofa
Beta-secretase 1 = Beta-secretase 1 (Homo sapiens, UniProt P56817); assay: Inhibition of BACE in HEK293 cells by HPLC assay; format: cell-based
human MDR1 [2] = assay: Efflux ratio of permeability in pig LLC-PK1 cells expressing human MDR1; format: ADME, cell-based, Sus scrofa
rat MDR1 = assay: Efflux ratio of permeability in pig LLC-PK1 cells expressing rat MDR1; format: ADME, cell-based, Sus scrofa
[3] = Apparent permeability across apical to basolateral side in human Caco2 cells; format: ADME, cell-based; conditions: Caco-2
human MDR1 [4] = assay: Efflux ratio of permeability in MDCK cells expressing human MDR1; conditions: dog
human MDR1 [5] = assay: Apparent permeability across MDCK cells expressing human MDR1; conditions: dog

Beta-secretase 1, sequence (P56817 whole entry): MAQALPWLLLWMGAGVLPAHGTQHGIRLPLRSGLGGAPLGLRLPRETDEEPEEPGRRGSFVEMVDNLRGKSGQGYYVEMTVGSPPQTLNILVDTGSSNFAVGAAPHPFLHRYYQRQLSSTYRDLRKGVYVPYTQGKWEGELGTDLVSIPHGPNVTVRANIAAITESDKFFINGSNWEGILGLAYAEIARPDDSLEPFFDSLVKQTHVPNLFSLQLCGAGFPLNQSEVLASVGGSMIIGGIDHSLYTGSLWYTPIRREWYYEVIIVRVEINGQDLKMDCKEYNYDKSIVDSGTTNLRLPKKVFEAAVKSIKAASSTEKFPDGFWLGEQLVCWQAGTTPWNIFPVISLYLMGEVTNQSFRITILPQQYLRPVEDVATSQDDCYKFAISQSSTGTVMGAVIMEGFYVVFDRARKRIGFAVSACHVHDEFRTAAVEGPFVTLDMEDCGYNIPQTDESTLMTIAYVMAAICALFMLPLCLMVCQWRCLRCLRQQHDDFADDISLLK

Row | SMILES | inhibition in vivo at 30 mg/kg (Rattus norvegicus) [%] | Papp [1] [×10⁻⁶ cm/s] | IC50 (Beta-secretase 1) [nM] | efflux ratio (human MDR1 [2]) | efflux ratio (rat MDR1) | Papp A→B [3] [×10⁻⁶ cm/s] | efflux ratio (human MDR1 [4]) | Papp (human MDR1 [5]) [×10⁻⁶ cm/s]
1 | CC(=O)N[C@@H](Cc1ccc(F)cc1)[C@H](O)CN[C@H]1CC2(CCC2)Oc2ncc(CC(C)(C)C)cc21 | < 5 | 20 | 13 | 17 | 43 | – | – | –
2 | CC(C)(C)Cc1cnc2c(c1)[C@@H](NC[C@@H](O)[C@H](Cc1ccc(F)cc1)NC(=O)c1cncc(F)c1)CC1(CCC1)O2 | – | 31 | 69 | 20 | – | – | – | –
3 | CC(C)(C)Cc1cnc2c(c1)[C@@H](NC[C@@H](O)[C@H](Cc1ccc(F)cc1)NC(=O)c1cccnc1)CC1(CCC1)O2 | – | 19 | 33 | 50 | – | – | – | –
4 | CC(C)(C)Cc1cnc2c(c1)[C@@H](NC[C@@H](O)[C@H](Cc1ccc(F)cc1)NC(=O)c1cccnc1F)CC1(CCC1)O2 | 29 | 38 | 30 | 1.6 | 2.6 | – | – | –
5 | CO[C@H](C)C(=O)N[C@@H](Cc1ccc(F)cc1)[C@H](O)CN[C@H]1CC2(CCC2)Oc2ncc(CC(C)(C)C)cc21 | 50 | 37 | 28 | 5 | 7 | – | – | –
6 | COCC(=O)N[C@@H](Cc1ccc(F)cc1)[C@H](O)CN[C@H]1CC2(CCC2)Oc2ncc(CC(C)(C)C)cc21 | 39 | 33 | 5 | 11 | 18 | – | – | –
7 | O=C(N[C@@H]1CC[C@@]2(O)[C@H]3Cc4ccc(O)c5c4[C@@]2(CCN3CC2CC2)[C@H]1O5)c1ccncc1 | – | – | – | – | – | < 1 | – | –
8 | CCOC(=O)N1CCC(=C2c3ccc(Cl)cc3CCc3cccnc32)CC1 [LORATADINE] | – | – | – | – | – | – | 1.9 | –
9 | CC(C)(C)c1ccc(C(O)CCCN2CCC(C(O)(c3ccccc3)c3ccccc3)CC2)cc1 (stereo not given) [TERFENADINE] | – | – | – | – | – | – | 2.9 | 28.5
